# pIC50: −log10 of the molar value. Like-named read-outs stand apart in the source and are kept apart here.
# What was measured:
# [1] = system: Sarcoma 180 mouse solid tumor; assay: Antitumor activity against Sarcoma 180 mouse solid tumor; type: in vivo, mouse (ddY); conditions: Sarcoma-180, iv, 168 h
# Description: To a ddY mouse were intraperitoneally transplanted 5×10^6 sarcoma 180 cells. On the seventh day from the transplant, the cells were collected from the ascites, washed once with sterilized physiological saline, and then diluted with sterilized physiological saline to prepare a cell suspension having a concentration of 5×10^7 cells/mL. This suspension was transplanted in an amount of 0.01 mL to a subcutaneous part of the right axilla of each of male ddY mice each weighing 20±1 g.
# A test compound was dissolved in physiological saline containing polyoxyethylene sorbitan monolaurate. At 24 hours after the tumor transplant, 0.2 mL of the solution was intravenously administered to the tail of each of a group of five mice.
# HeLa S3 cells = assay: HeLa S3 Cell Growth Inhibition Test; type: cell-based; conditions: 72 hours incubation, Neutral Red
# Outline: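 HeLa S3 cells seeded overnight in MEM with 10% FBS, then exposed to compound for 72 h at 37 °C. Viable cells stained with Neutral Red, dye extracted, absorbance read at 550 nm; IC50 derived against untreated cells.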
# [2] = read-out: T/C (tumor volume ratio treated/control)
# [3] = Homo sapiens, HeLa S3, 72 h, read-out: IC50, HeLa S3 cell growth inhibition, HeLa S3
# [4] = 8.0 mg/kg i.v. once, 24 hours after transplant, tumor volume on day 7, read-out: T/C (tumor volume ratio treated/control)
# [5] = Homo sapiens, HeLa S3, 72 h, HeLa S3, read-out: IC50, HeLa S3 cell growth inhibition
# [6] = 4.0 mg/kg i.v. once, 24 hours after transplant, tumor volume on day 7, read-out: T/C (tumor volume ratio treated/control)
# [7] = 16 mg/kg i.v. once, 24 hours after transplant, tumor volume on day 7, read-out: T/C (tumor volume ratio treated/control)
compound,measurement,setting,value
CC1=CC(OC2CCCCO2)C(=O)C=CC=Cc2csc(n2)C(C)N2C(=O)CC(C(C)(O)C(=O)SCOC(=O)c3ccccc3)(CC1)[S+]2[O-] (stereo not shown) [Compound 7],response vs control in vivo at 4 mg/kg,[1]; [2],23%
same,pIC50,HeLa S3 cells; [3],7.30
CC(=O)Oc1ccc(C(=O)OCSC(=O)C(C)(O)C23CC/C(C)=C/C(OC4CCCCO4)C(=O)/C=C/C=C\c4csc(n4)C(C)N(C(=O)C2)[S+]3[O-])cc1 (stereo not shown) [Compound 53],response vs control in vivo at 8 mg/kg,[1]; [4],50%
same,pIC50,HeLa S3 cells; [5],7.46
CC(=O)Oc1cccc(C(=O)OCSC(=O)C(C)(O)C23CC/C(C)=C/C(OC4CCCCO4)C(=O)/C=C/C=C\c4csc(n4)C(C)N(C(=O)C2)[S+]3[O-])c1 (stereo not shown) [Compound 54],response vs control in vivo at 4 mg/kg,[1]; [6],47%
same,pIC50,HeLa S3 cells; [5],7.82
COCCOCCOCC(=O)OCc1oc(=O)oc1CSC(=O)C(C)(O)C12CC/C(C)=C/C(OC3CCCCO3)C(=O)/C=C/C=C\c3csc(n3)C(C)N(C(=O)C1)[S+]2[O-] (stereo not shown) [Compound 102],response vs control in vivo at 16 mg/kg,[1]; [7],46%
same,pIC50,HeLa S3 cells; [5],7.42
COC(=O)NCC(=O)OCSC(=O)C(C)(O)C12CC/C(C)=C/C(OC3CCCCO3)C(=O)/C=C/C=C\c3csc(n3)C(C)N(C(=O)C1)[S+]2[O-] (stereo not shown) [Compound 40],response vs control in vivo at 4 mg/kg,[1]; [6],36%
same,pIC50,HeLa S3 cells; [5],7.82
CC1=C(CSC(=O)C(C)(O)C23CC/C(C)=C/C(OC4CCCCO4)C(=O)/C=C/C=C\c4csc(n4)C(C)N(C(=O)C2)[S+]3[O-])C(=O)OC2(CCOCC2)O1 (stereo not shown) [Compound 125],response vs control in vivo at 16 mg/kg,[1]; [7],43%
same,pIC50,HeLa S3 cells; [5],7.33
COC1(OC2/C=C(\C)CCC3(C(C)(O)C(=O)SCC4=C(C)OC(C)(C)OC4=O)CC(=O)N(C(C)c4nc(cs4)/C=C\C=C\C2=O)[S+]3[O-])CCOCC1 (stereo not shown) [Compound 122],response vs control in vivo at 16 mg/kg,[1]; [7],37%
same,pIC50,HeLa S3 cells; [5],5.74
C/C1=C\C(OC2CCCCO2)C(=O)/C=C/C=C\c2csc(n2)C(C)N2C(=O)CC(C(C)(O)C(=O)SCOC(=O)CCNC(=O)[C@@]34O[C@@H](CO)[C@@H](O)[C@@H]3OC(C)(C)O4)(CC1)[S+]2[O-] (stereo partly shown) [Compound 64],response vs control in vivo at 8 mg/kg,[1]; [2],43%
same,pIC50,HeLa S3 cells; [3],7.46
CC1=CC(O)C(=O)C=CC=Cc2csc(n2)C(C)N2C(=O)CC(C(C)(O)C(=O)SCOC(=O)CNC(=O)OC(C)(C)C)(CC1)[S+]2[O-] (stereo not shown) [Compound 16],response vs control in vivo at 2 mg/kg,[1]; [2],47%
same,pIC50,HeLa S3 cells; [3],8.21
COCCOCCOCC(=O)OCc1oc(=O)oc1CSC(=O)C(C)(O)C12CC/C(C)=C/C(O)C(=O)/C=C/C=C\c3csc(n3)C(C)N(C(=O)C1)[S+]2[O-] (stereo not shown) [Compound 101],response vs control in vivo at 16 mg/kg,[1]; [7],27%
same,pIC50,HeLa S3 cells; [5],7.00
C=C(CSC(=O)C(C)(O)C12CC/C(C)=C/C(OC3CCCCO3)C(=O)/C=C/C=C\c3csc(n3)C(C)N(C(=O)C1)[S+]2[O-])C(=O)OC (stereo not shown) [Compound 112],response vs control in vivo at 8 mg/kg,[1]; [4],24%
same,pIC50,HeLa S3 cells; [5],7.19
C/C1=C\C(OC2CCCCO2)C(=O)/C=C/C=C\c2csc(n2)C(C)N2C(=O)CC(C(C)(O)C(=O)SCc3oc(=O)oc3CO)(CC1)[S+]2[O-] (stereo not shown) [Compound 87],response vs control in vivo at 16 mg/kg,[1]; [2],40%
same,pIC50,HeLa S3 cells; [3],7.48
COCCOCC(=O)OCc1oc(=O)oc1CSC(=O)C(C)(O)C12CC/C(C)=C/C(O)C(=O)/C=C/C=C\c3csc(n3)C(C)N(C(=O)C1)[S+]2[O-] (stereo not shown) [Compound 99],response vs control in vivo at 8 mg/kg,[1]; [4],40%
same,pIC50,HeLa S3 cells; [5],7.06
"COC(=O)NCC(=O)OCSC(=O)C(C)(O)C12CC/C(C)=C/C(OC3CCCCO3)C(=O)/C=C/C=C\c3csc(n3)C(C)N(C(=O)C1)[S+]2[O-] (single isomer, unassigned) [Compound 41]",response vs control in vivo at 4 mg/kg,[1]; [6],32%
same,pIC50,"HeLa S3 cells; HeLa S3, read-out: IC50, HeLa S3 cell growth inhibition",8.40
CC1=CC(O)C(=O)C=CC=Cc2csc(n2)C(C)N2C(=O)CC(C(C)(O)C(=O)SCOC(=O)CC[C@H](NC(=O)OC(C)(C)C)C(=O)OC(C)(C)C)(CC1)[S+]2[O-] (stereo partly shown) [Compound 22],response vs control in vivo at 4 mg/kg,[1]; [6],42%
same,pIC50,HeLa S3 cells; [5],8.13
C/C1=C\C(OC2CCCCO2)C(=O)/C=C/C=C\c2csc(n2)C(C)N2C(=O)CC(C(C)(O)C(=O)SCc3oc(=O)oc3COC(=O)c3cnc4ccccc4n3)(CC1)[S+]2[O-] (stereo not shown) [Compound 94],response vs control in vivo at 8 mg/kg,[1]; [2],43%
same,pIC50,HeLa S3 cells; [3],7.48
CCOC(=O)N1CCC2(CC1)OC(=O)C(CSC(=O)C(C)(O)C13CC/C(C)=C/C(OC4CCCCO4)C(=O)/C=C/C=C\c4csc(n4)C(C)N(C(=O)C1)[S+]3[O-])=C(C)O2 (stereo not shown) [Compound 127],response vs control in vivo at 16 mg/kg,[1]; [7],29%
same,pIC50,"HeLa S3 cells; Homo sapiens, HeLa S3, read-out: IC50, HeLa S3 cell growth inhibition",7.48
